Assay results from patent publication US7199127B2, “Purine nucleosides” (United States of America, Represented by the Secretary, …, priority 2002, dated 2007).
Like-named read-outs stand apart in the source and are kept apart here.

Columns and labels:
rA2a adenosine receptor = target: T1, rA2a adenosine receptor (Rattus norvegicus, UniProt P30543); assay: Binding of [3H]CGS21680 to A2a (rat); settings: for % Displacement rA2a: 10 μM, [3H]CGS21680
T1 construct: Striatal and forebrain tissues from Wistar rats were homogenized in ice-cold 50 mM Tris.HCl buffer; from tissue; host or cells: Wistar rat brain membranes (striatum for A2a is my own knowledge)
T1 sequence (P30543 whole entry): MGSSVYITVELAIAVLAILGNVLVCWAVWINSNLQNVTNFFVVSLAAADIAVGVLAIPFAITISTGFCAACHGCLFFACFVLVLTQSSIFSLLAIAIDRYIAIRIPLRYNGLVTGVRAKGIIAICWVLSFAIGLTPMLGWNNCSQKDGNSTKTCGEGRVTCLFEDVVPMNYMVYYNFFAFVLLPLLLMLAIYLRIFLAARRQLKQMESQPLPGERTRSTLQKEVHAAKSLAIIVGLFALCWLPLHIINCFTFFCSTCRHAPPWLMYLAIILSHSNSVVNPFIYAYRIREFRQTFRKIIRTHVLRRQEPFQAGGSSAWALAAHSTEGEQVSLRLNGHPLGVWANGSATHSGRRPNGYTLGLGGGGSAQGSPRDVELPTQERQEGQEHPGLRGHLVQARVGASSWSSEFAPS
Method: (§3) The binding of [^3H]PIA ((R)-N^6-(phenylisopropyl)adenosine) to A1 and the binding of [^3H]CGS21680(2-[[[4-(2–Carboxyethyl-phenyl)ethylamino]-5′-N-thylcarbamoyl)adenosine) to A2a were measured as described below. Adenosine deaminase was added while the membrane was cultured at 30° C. for 30 min with the radioactive ligand. The IC50 values of each compound were determined for at least 6 different concentrations.
(§4) Striatal and forebrain tissues from Wistar rats were homogenized in ice-cold 50 mM Tris.HCl buffer, pH 7.4, using an electric homogenizer. The homogenate was centrifuged at 20,000 g for 10 min at 4° C., and the pellet was washed in fresh buffer. The final pellet was stored at −80° C. until the binding experiments.

rA1 adenosine receptor = target: T2, rA1 adenosine receptor (Rattus norvegicus, UniProt P25099); assay: Binding of [3H]PIA to A1 (rat); settings: Cheng-Prusoff
T2 construct: Striatal and forebrain tissues from Wistar rats were homogenized in ice-cold 50 mM Tris.HCl buffer; from tissue; host or cells: Wistar rat brain membranes (forebrain for A1 is my own knowledge)
T2 sequence (P25099 1-326): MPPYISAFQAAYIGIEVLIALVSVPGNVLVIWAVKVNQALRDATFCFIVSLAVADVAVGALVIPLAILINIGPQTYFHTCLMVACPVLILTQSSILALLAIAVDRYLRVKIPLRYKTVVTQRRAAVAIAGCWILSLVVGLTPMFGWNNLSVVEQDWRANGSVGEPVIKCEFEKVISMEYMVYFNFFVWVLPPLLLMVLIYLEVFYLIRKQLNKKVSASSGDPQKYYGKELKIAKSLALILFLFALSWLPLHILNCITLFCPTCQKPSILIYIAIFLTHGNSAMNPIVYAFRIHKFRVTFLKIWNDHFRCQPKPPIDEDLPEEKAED
Method: as §3, §4

hA3 adenosine receptor = target: T3, hA3 adenosine receptor (Homo sapiens, UniProt P0DMS8); assay: [125I]AB-MECA binding to membranes of CHO cells that express the A3 receptor; settings: for Ki: [125I]AB-MECA, CHO cell membrane, Cheng-Prusoff
T3 construct: expressed in transfected cells; host or cells: CHO cells (ATCC CCL-61)
T3 sequence (P0DMS8 1-318): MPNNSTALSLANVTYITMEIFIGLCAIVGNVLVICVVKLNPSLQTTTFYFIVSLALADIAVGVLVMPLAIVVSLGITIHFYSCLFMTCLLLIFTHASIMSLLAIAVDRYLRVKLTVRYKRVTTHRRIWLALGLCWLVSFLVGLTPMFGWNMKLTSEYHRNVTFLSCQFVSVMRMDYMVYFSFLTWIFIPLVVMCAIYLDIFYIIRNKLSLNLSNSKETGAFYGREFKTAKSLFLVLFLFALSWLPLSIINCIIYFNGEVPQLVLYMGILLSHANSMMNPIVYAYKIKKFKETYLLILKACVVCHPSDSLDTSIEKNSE
Method: Chinese hamster ovary (CHO, ATCC; US Cell Strain Bank No. CCL-61) cells that express the A3 receptor were cultured at 37° C. in the presence of 5% carbon dioxide in F-12 culture medium (Gibco Company, USA) containing 10% fetal bovine serum (FBS) and penicillin/streptomycin (100 U/mL and 100 μg/mL), and used.
The inhibitor is first dissolved in dimethyl sulfoxide and diluted with buffer solution. The final concentration of DMSO should not exceed 1%. After culturing at 37° C. for 1 h, it was quickly filtered using a cell collector (TOMTEC Company, USA) and a GF/B filter (Whatman Company, USA). The test tube was rinsed three times with 3 mL of buffer solution, and the radioactivity was measured using a γ-counter.
CHO (Chinese hamster ovary) cells expressing recombinant the human A3AR were cultured in DMEM supplemented with 10% fetal bovine serum, 100 units/mL penicillin, 100 μg/mL streptomycin, 2 μmol/mL glutamine and 800 μg/mL geneticin. The CHO cells expressing rat A3ARs were cultured in DMEM and F 12 (1:1). Cells were harvested by trypsinization. After homogenization and suspension, cells were centrifuged at 500 g for 10 min, and the pellet was re-suspended in 50 mM Tris HCl buffer (pH 8.0) containing 10 mM MgCl2, 1 mM EDTA and 0.1 mg/mL CHAPS. The suspension was homogenized with an electric homogenizer for 10 sec, and was then re-centrifuged at 20,000 g for 20 min at 4° C. The resultant pellets were resuspended in buffer in the presence of 3 Units/mL adenosine deaminase, and the suspension was stored at −80° C. until the binding experiments. Striatal and forebrain tissues from Wistar rats were homogenized in ice-cold 50 mM Tris.HCl buffer, pH 7.4, using an electric homogenizer. The homogenate was centrifuged at 20,000 g for 10 min at 4° C., and the pellet was washed in fresh buffer. The final pellet was stored at −80° C. until the binding experiments.
The mixtures were incubated at 37° C. for 60 min. Binding reactions were terminated by filtration through Whatman GF/B filters under reduced pressure using a MT-24 cell harvester (Brandell, Gaithersburgh, Md., USA). Filters were washed three times with 9 mL ice-cold buffer. Radioactivity was determined in a Beckman 5500γ-counter.

hA1 adenosine receptor = target: T4, hA1 adenosine receptor (Homo sapiens, UniProt P30542); assay: Binding of [3H]PIA to A1 (human); settings: Cheng-Prusoff
T4 sequence (P30542 1-326): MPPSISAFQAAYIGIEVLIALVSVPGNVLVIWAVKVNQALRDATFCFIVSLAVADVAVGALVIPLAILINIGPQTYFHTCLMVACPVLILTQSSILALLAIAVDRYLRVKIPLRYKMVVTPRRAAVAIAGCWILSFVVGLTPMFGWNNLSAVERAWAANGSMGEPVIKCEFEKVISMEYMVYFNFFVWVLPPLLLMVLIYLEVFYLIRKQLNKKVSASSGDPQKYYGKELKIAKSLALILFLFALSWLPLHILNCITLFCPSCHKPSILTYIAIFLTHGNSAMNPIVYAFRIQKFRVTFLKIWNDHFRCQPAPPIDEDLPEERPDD
Method: as §3

hA2a adenosine receptor = hA2a adenosine receptor (Homo sapiens, UniProt P29274); assay: Binding of [3H]CGS21680 to A2a (human); settings: for Ki: [3H]CGS21680, Cheng-Prusoff
Chain of hA2a adenosine receptor (P29274 whole entry): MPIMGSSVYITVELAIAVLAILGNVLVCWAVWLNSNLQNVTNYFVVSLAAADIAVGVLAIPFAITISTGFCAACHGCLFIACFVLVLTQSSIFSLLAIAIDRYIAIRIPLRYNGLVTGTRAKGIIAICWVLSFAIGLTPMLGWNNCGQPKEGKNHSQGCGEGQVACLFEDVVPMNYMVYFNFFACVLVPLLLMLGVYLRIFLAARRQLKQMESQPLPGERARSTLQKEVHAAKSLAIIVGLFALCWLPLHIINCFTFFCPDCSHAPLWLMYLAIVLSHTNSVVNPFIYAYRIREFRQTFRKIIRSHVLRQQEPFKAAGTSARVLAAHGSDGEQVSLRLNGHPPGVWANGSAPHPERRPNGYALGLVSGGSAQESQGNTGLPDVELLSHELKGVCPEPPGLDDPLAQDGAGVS
Method: as §3

Sprague Dawley rats = assay: Toxicity test in rats; assay type: in vivo; settings: rats, 20, 10 and 1 mg/kg peritoneally, observed for 24 h
Method: (§1) Animal studies were carried out to test the toxicity of the compounds pared in the present invention.
(§2) 25±5 g ICR family mice (Joongang Study Animal) and 235±10 g specific pathogen free (SPF) Sprague Dawley rats (Joongang Study Animal) were divided into 3 groups.

ICR family mice = assay: Toxicity test in mice; assay type: in vivo; settings: mice, 20, 10 and 1 mg/kg peritoneally, observed for 24 h
Method: as §1, §2

[1] = [3H]CGS21680, Cheng-Prusoff, read-out: Ki rA2a

Question: With `CNc1nc(Cl)nc2c1ncn2[C@@H]1S[C@H](CO)[C@@H](O)[C@H]1O` [Compound 23, (2R,3R,4S,5R)-2-(2-chloro-6-methylaminopurin-9-yl)-5-hydroxymethyltetrahydrothiophene-3,4-diol] as the compound, how does the “% Displacement rA2a” value (rA2a adenosine receptor) read?
Answer: The value was under 10%.

Question: And the Ki (rA1 adenosine receptor)?
Answer: The Ki was 780 nM.

Question: And the Ki (hA3 adenosine receptor)?
Answer: The Ki was 0.8 nM.

Question: Which results are given for `Nc1nc(Cl)nc2c1ncn2[C@@H]1S[C@H](CO)[C@@H](O)[C@H]1O` [Compound 25, (2R,3R,4S,5R)-2-(2-chloro-6-aminopurin-9-yl)-5-hydroxymethyltetrahygrothiophene-3,4-diol]?
Answer: Ki (rA2a adenosine receptor): 705 nM; Ki (rA1 adenosine receptor): 238 nM; Ki (hA3 adenosine receptor): 4.9 nM

Question: Which results are given for `CNC(=O)[C@H]1S[C@@H](n2cnc3c(N)nc(Cl)nc32)[C@H](O)[C@@H]1O` [Compound 29]?
Answer: % Displacement rA2a (rA2a adenosine receptor): <10%; Ki (rA1 adenosine receptor): 294 nM; Ki (hA1 adenosine receptor): 89.2 nM; Ki (hA2a adenosine receptor): 158 nM; Ki (hA3 adenosine receptor): 0.4 nM

Question: What does the source list for `CNC(=O)[C@H]1S[C@@H](n2cnc3c(NC)nc(Cl)nc32)[C@H](O)[C@@H]1O` [Compound 33, (2S,3S,4R,5R)-5-(2-chloro-6-methylaminopurin-9-yl)-3,4-dihydroxytetrahydrothiophene-2-carboxylic acid methyl amide]?
Answer: Ki (rA2a adenosine receptor; [1]): 6340 nM; Ki (rA1 adenosine receptor): 198 nM; Ki (hA1 adenosine receptor): 1330 nM; deaths (Sprague Dawley rats): no deaths were observed; symptoms (weight increase, feed intake) versus control group (Sprague Dawley rats): no other observable symptoms; % Displacement hA2a (hA2a adenosine receptor; 10 μM, [3H]CGS21680): 20%; A3 agonist activity (hA3 adenosine receptor; in words, compared with known compounds): most strong and selective A3 agonist activity among the known compounds; deaths (ICR family mice): no deaths were observed; symptoms (weight increase, feed intake) versus control group (ICR family mice): no other observable symptoms

Question: Which results are given for `OC[C@H]1S[C@@H](n2cnc3c(NCc4cccc(I)c4)nc(Cl)nc32)[C@H](O)[C@@H]1O` [Compound 20, (2R,3R, 4S,5R)-2-[2-chloro-6-(3-iodobenzylamino)purin-9-yl]-5-hydroxymethyltetrahydrothiophene-3,4-diol]?
Answer: Ki (rA2a adenosine receptor; [1]): 285 nM; Ki (rA1 adenosine receptor): 127 nM; melting point: 112 to 114 °C; Ki (hA3 adenosine receptor): 3.2 nM

Question: Which Ki (rA2a adenosine receptor; [1]) does the source give for `CNC(=O)[C@H]1S[C@@H](n2cnc3c(NCc4cccc(I)c4)nc(Cl)nc32)[C@H](O)[C@@H]1O` [Compound 36] here?
Answer: The Ki was 348 nM.

Question: What about the Ki (rA1 adenosine receptor) of the same compound?
Answer: The Ki was 140 nM.

Question: What about the Ki (hA2a adenosine receptor) of the same compound?
Answer: The Ki was 223 nM.

Question: For `CNC(=O)[C@]1(n2cnc3c(NCc4cccc(I)c4)nc(Cl)nc32)SC[C@H](O)[C@@H]1O` [Compound 12, (2R,3S,4R)-2-[2-chloro-6-(3-iodobenzylamino)purin-9-yl)-3,4-dihydroxytetrahydrothiophene-2-carboxylic acid methyl amide], which “% Displacement rA2a” value (rA2a adenosine receptor) is on record?
Answer: Its value is under 10%.

Question: And the Ki (rA1 adenosine receptor)?
Answer: Its Ki is 188 nM.

Question: And the melting point?
Answer: Its melting point is 205 to 207 °C.
